From paper PMC11595864, “Design, Synthesis, and Evaluation of Novel Thiazole-Containing Algicides Inspired by Bacillamide A” (Marine Drugs, 2024)
Values after ≈ are worked out from the molar mass of the structure shown.

Key:
zebrafish = experiment: Zebrafish acute toxicity assay; assay type: in vivo; settings: for Survival percent: zebrafish
Description: Zebrafish acute toxicity of bacillamide A and synthesized BDs were evaluated at 0.1 mg/L, 1 mg/L, and 10 mg/L, respectively. Diuron and CuSO4 were used as positive controls. The commercial zebrafish (body length > 3.0 cm) were domesticated in aerated tap water for 24 h, fed once daily for seven consecutive days, and stopped being fed before the experiment.
4. Acute toxicity table S1.
Compound Concentration Survival percent Acute
aAccording to the Guide for Environmental Safety Assessment of Chemical Pesticides
4 groups and treated with different compounds for 96 h.

A. pacificum [1] = experiment: Growth-inhibition rate measurement at 50 mg/L, 24 h; assay type: cell-based, Alexandrium pacificum; settings: Alexandrium pacificum, read-out: inhibition rate against A. pacificum
Description: (§1) P. minimum, A. pacificum, and S. costatum were purchased from Guangyu Biological Technology Co., Ltd. (Shanghai, China). The algae strain was cultured in F/2 medium ((12 h light: 12 h dark cycle), 20 ± 1 °C, 70 μmol m^−2 s^−1). Purchased algae were transferred to sterile conical flasks for culture; after the algae proliferation was stabilized, the expanded culture was next carried out following standard conditions.
(§2) The stock solutions of bacillamide A and different BDs were prepared in dimethyl sulfoxide (DMSO) with the requisition amount. […] The controls received the same volume of DMSO. The inhibitory activities of bacillamide A, different BDs, and positive controls were screened by 96 well microtiter plates at different concentrations. Inhibition ratios (IRs) of cupric sulfate (50 mg/L, positive control), bacillamide A (50 mg/L), and BDs (50 mg/L) were calculated on algae using Equation (1). (1) IR=Cc0-Cex/Cc0×100%
(§3) The CC0 and Cex, respectively, represent the algal densities of the control and experimental groups.

S. costatum [2] = experiment: as above; assay type: cell-based, Skeletonema costatum; settings: for inhibition at 50 µg/mL: Skeletonema costatum, read-out: inhibition rate against S. costatum
Description: as §1, §2, §3

A. pacificum [3] = experiment: Algicidal activity assay, EC50; assay type: cell-based, Alexandrium pacificum; settings: for EC50: Alexandrium pacificum, Mean ± SD, n = 3
Description: as §1
(§4) Copper sulfate and Diuron were used as the positive controls. EC50 values were calculated according to the equation of the quantity–effect relationship in Equation (2) using the Hill model of Graph Pad Prism software (8.0.2). (2) Y=Bottom+(Top-Bottom)/1+10^(Log EC50-X)×Hill Slope
(§5) The X and Y values represent the concentration (mg/L) and response values of the control and experimental groups, respectively. The Top, Bottom, and Hill Slope represent the maximum response, minimum response, and the curve slope, respectively. The EC50 represents half of the maximum effective concentration.

P. minimum [4] = experiment: Algicidal activity assay, EC50; assay type: cell-based, Prorocentrum minimum; settings: for EC50: Prorocentrum minimum, Mean ± SD, n = 3, read-out: EC50 P. minimum
Description: as §1, §4, §5

S. costatum [5] = experiment: Algicidal activity assay, EC50; assay type: cell-based, Skeletonema costatum; settings: for EC50: Skeletonema costatum, Mean ± SD, n = 3, read-out: EC50 S. costatum
Description: as §1, §4, §5

P. minimum [6] = experiment: Growth-inhibition rate measurement at 50 mg/L, 24 h; assay type: cell-based, Prorocentrum minimum; settings: Prorocentrum minimum, read-out: inhibition rate against P. minimum
Description: as §1, §2, §3

A. pacificum [7] = experiment: Observation of cellular morphology (optical microscope); assay type: cell-based, Alexandrium pacificum; settings: 10 mg/L, 4 h
P. minimum [8] = experiment: MDA level (thiobarbituric acid assay kit); assay type: cell-based, Prorocentrum minimum; settings: 10 mg/L, 72 h, versus control (DMSO)
Description: (§6) P. minimum, S. costatum, and A. pacificum cells were cultured in F/2 medium. All flasks were cultivated under 12 h of light: 12 h of dark and 70 μmol m^−2 s^−1 at 20 ± 1 °C. […] Finally, the algal cells were collected and diluted in 6 mL of phosphate buffer (pH = 7.8). A small amount of quartz sand was added into the algal cells under ice bath. The obtained homogenate was next poured into a centrifuge tube and centrifuged at 5000 r/min for 25 min at 4 °C. The obtained supernatant was placed in the refrigerator at 4 °C for the next step experiment.
(§7) The malondialdehyde (MDA) assay kit was purchased from Lvyuandade Biochemical Co, Ltd., Beijing, China. The MDA parameter was monitored according to the procedure provided by the manufacturer. A total of 1 mL of algal extract was mixed with thiobarbituric acid solution (2 mL, 0.6%). The solution was sealed and kept in a boiling water bath for 15 min, followed by being cooled and centrifuged at 4500 r/min for 10 min. The absorbance values of collected supernatant were measured and calculated by the Formula (3) at 600 nm, 532 nm, and 450 nm:MDA content (nmol∙mgprot^−1) = 6.45 × (A532 − A600) − 0.56 × A450(3)

S. costatum [9] = experiment: MDA level (thiobarbituric acid assay kit); assay type: cell-based, Skeletonema costatum; settings: 10 mg/L, 72 h, versus control (DMSO)
Description: as §6, §7

S. costatum [10] = experiment: ROS level (DCFH-DA fluorescent probe assay); assay type: cell-based, Skeletonema costatum; settings: 10 mg/L, 72 h
Description: as §6
(§8) The reactive oxygen species (ROS) assay kit was purchased from SolarBio Co., Ltd., Beijing, China. The 2′,7′-dichlorodihydrofluorescein diacetate (DCFH-DA) could be oxidized by reactive oxygen or nitrogen species (ROS/RNS) to generate high fluorescent 2′,7′-dichlorofluoroscein (DCF). DCF could be detected by Cyto-FLEX flow cytometry.

PSII in P. minimum = experiment: Quantum yield Fv/Fm of PSII; assay type: cell-based, Prorocentrum minimum; settings: 10 mg/L, 72 h, versus negative control
Description: as §6
(§9) Fv/Fm values were determined by using AquaPen handheld algae fluorescence meter (Nanjing Mingao Instrument Co., Ltd., Nanjing, China). The algae cells were darkened for 30 min and Fv/Fm values were measured.

S. costatum [11] = experiment: Observation of cellular morphology (optical microscope, SEM); assay type: cell-based, Skeletonema costatum; settings: 10 mg/L, 4 h
Description: (§10) There were morphological changes of algae cells treated by bacillamide A, BDs, and the positive control (CuSO4). […] Cell samples were centrifuged at 12,000 rpm for 10 min, collected, fixed, gradient-dehydrated, and freeze-dried after gold coating following the reported procedure. The SEM analyses were performed by scanning electron microscopy (SEM, JSM-7900F, […], Tokyo, Japan).

PSII in S. costatum = experiment: Quantum yield Fv/Fm of PSII; assay type: cell-based, Skeletonema costatum; settings: 10 mg/L, 72 h, versus negative control
Description: as §6, §9

P. minimum [12] = experiment: ROS level (DCFH-DA fluorescent probe assay); assay type: cell-based, Prorocentrum minimum; settings: 10 mg/L, 72 h
Description: as §6, §8

P. minimum [13] = experiment: Observation of cellular morphology (optical microscope, SEM); assay type: cell-based, Prorocentrum minimum; settings: 10 mg/L, 4 h
Description: as §10

SMILES | Survival percent (zebrafish; 0.1 mg/L, 0h) | Survival percent (zebrafish; 0.1 mg/L, 24h) | Survival percent (zebrafish; 0.1 mg/L, 48h) | Survival percent (zebrafish; 0.1 mg/L, 72h) | Survival percent (zebrafish; 0.1 mg/L, 96h) | Survival percent (zebrafish; 1 mg/L, 0h) | Survival percent (zebrafish; 1 mg/L, 24h) | Survival percent (zebrafish; 1 mg/L, 48h) | Survival percent (zebrafish; 1 mg/L, 72h) | Survival percent (zebrafish; 1 mg/L, 96h) | Survival percent (zebrafish; 10 mg/L, 0h) | Survival percent (zebrafish; 10 mg/L, 24h) | Survival percent (zebrafish; 10 mg/L, 48h) | Survival percent (zebrafish; 10 mg/L, 72h) | inhibition at 50 µg/mL (S. costatum [2]) | EC50 (A. pacificum [3]) | EC50 (P. minimum [4]) | EC50 (S. costatum [5]) | melting point | inhibition at 50 µg/mL (P. minimum [6]) | also measured
O=C(NCCc1c[nH]c2ccccc12)c1csc(-c2ccccc2)n1 [Compound 6a] | 100 | 100 | 100 | 100 | 100 | 100 | 83 | 80 | 80 | 73 | 100 | 0 | 0 | 0 | > 70% | 3.32 ± 0.79 µg/mL (≈ 9.56 µM) | 1.74 ± 0.4 µg/mL (≈ 5.01 µM) | 0.11 ± 0.02 µg/mL (≈ 0.317 µM) | – | – | Survival percent (zebrafish; 10 mg/L, 96h): 0; inhibition at 50 µg/mL (A. pacificum [1]): 70 to 95%; fold more potent than CuSO4 (S. costatum [5]; from EC50 against S. costatum): 28 fold; fold more potent than Diuron (S. costatum [5]; from EC50 against S. costatum): 39 fold; fold more potent than bacillamide A (S. costatum [5]; from EC50 against S. costatum): 23 fold
O=C(NCCc1c[nH]c2ccccc12)c1csc(-c2ccccc2[N+](=O)[O-])n1 [Compound 6b] | – | – | – | – | – | – | – | – | – | – | – | – | – | – | – | – | – | – | 122 to 123 °C | – | –
CCOc1ccc(-c2nc(C(=O)NCCc3c[nH]c4ccccc34)cs2)cc1 [Compound 6c] | – | – | – | – | – | – | – | – | – | – | – | – | – | – | > 70% | 2.43 ± 0.42 µg/mL (≈ 6.21 µM) | 1.29 ± 0.08 µg/mL (≈ 3.3 µM) | 0.51 ± 0.04 µg/mL (≈ 1.3 µM) | 184 to 185 °C | 70.8% | inhibition rate against S. costatum (S. costatum [2]): 72.6%
O=C(NCCc1c[nH]c2ccccc12)c1csc(-c2cccs2)n1 [Compound 6e] | – | – | – | – | – | – | – | – | – | – | – | – | – | – | – | – | – | – | 189 to 190 °C | – | –
CCCCc1nc(C(=O)NCCc2c[nH]c3ccccc23)cs1 [Compound 6j] | 100 | 100 | 100 | 100 | 100 | 100 | 100 | 100 | 80 | 80 | 100 | 80 | 0 | 0 | > 70% | 0.47 ± 0.25 µg/mL (≈ 1.44 µM) | 1 ± 0.11 µg/mL (≈ 3.05 µM) | 0.3 ± 0.02 µg/mL (≈ 0.916 µM) | – | 71.9% | mortality in zebrafish (zebrafish; 10 mg/L, treatment for more than 48 h): 100%; Survival percent (zebrafish; 10 mg/L, 96h): 0; cell morphology of A. pacificum, micrographs (A. pacificum [7]): broken or damaged or both; increase of MDA levels in P. minimum (P. minimum [8]): 2.3 fold; increase of MDA levels in S. costatum (S. costatum [9]): 2.2 fold; increase of ROS levels in S. costatum (S. costatum [10]): 3 fold; decrease of Fv/Fm of PSII in P. minimum (PSII in P. minimum): 3 fold; inhibition at 50 µg/mL (A. pacificum [1]): 70 to 95%; cell morphology of S. costatum, micrographs (S. costatum [11]): broken or damaged or both; inhibition rate against S. costatum (S. costatum [2]): 81.7%; decrease of quantum yield Fv/Fm of PSII in S. costatum (PSII in S. costatum): 27 fold; fold more potent than natural bacillamide A, Diuron, and CuSO4 (A. pacificum [3]; from EC50 against A. pacificum): 3–5 fold; fold more potent than natural bacillamide A, Diuron, and CuSO4 (P. minimum [4]; from EC50 against P. minimum): 3–5 fold; increase of ROS levels in P. minimum (P. minimum [12]): 5.4 fold; cell morphology of P. minimum, micrographs (P. minimum [13]): broken or damaged or both
COc1ccc2[nH]cc(CCNC(=O)c3csc(-c4ccccc4)n3)c2c1 [Compound 7b] | – | – | – | – | – | – | – | – | – | – | – | – | – | – | – | 0.72 ± 0.021 µg/mL (≈ 1.91 µM) | 1.32 ± 0.38 µg/mL (≈ 3.5 µM) | 0.37 ± 0.07 µg/mL (≈ 0.98 µM) | 164 to 165 °C | 82.3% | –
